Measurements as given in publication PMC10023787, “Trio-pharmacophore DNA-encoded chemical library for simultaneous selection of fragments and linkers” (Nature Communications, 2023).
Where two headings read alike, the source gives them in different places.

How the values were obtained:
[1] = molecular target: T1, MMP-2 (Homo sapiens, UniProt P08253); test: MMP-2 inhibition assay (fluorogenic peptide substrate); format: biochemical
T1 construct: purchased Sino Biological 10082-HNAH
T1 sequence (P08253 110-660): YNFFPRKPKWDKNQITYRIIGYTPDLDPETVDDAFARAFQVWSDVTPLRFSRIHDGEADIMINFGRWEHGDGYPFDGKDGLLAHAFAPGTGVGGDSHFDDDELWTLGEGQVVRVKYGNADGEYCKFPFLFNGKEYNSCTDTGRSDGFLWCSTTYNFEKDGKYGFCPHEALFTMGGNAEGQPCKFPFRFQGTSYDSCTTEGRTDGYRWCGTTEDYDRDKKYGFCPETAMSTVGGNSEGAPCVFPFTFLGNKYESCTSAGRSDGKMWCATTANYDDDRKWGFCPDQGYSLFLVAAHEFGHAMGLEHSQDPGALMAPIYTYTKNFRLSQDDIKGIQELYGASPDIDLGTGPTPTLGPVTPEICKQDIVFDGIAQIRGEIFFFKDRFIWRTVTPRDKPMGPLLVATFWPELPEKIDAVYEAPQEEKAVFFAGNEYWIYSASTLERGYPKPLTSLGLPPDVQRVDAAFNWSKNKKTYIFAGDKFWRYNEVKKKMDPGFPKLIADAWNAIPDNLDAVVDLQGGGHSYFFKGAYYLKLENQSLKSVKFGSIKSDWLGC
In short: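 Human proMMP-2 and proMMP-9 were activated with 1 mM APMA for 2 h at 37 °C, then used at 6.5 nM (MMP-2) or 10 nM (MMP-9) final in Tris/NaCl/CaCl2/Brij 35 buffer, pH 7.5. After 30 min preincubation with compound at RT, 25 μM FRET peptide substrate was added and fluorescence (ex 280/em 360 nm) followed for 30 min. IC50 came from logistic fits of Vmax.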

[2] = molecular target: T2, MMP-9 (Homo sapiens, UniProt P14780); test: De novo T-DEL selection against MMP-9, NGS decoding; format: binding; conditions: MMP-9 selection, Figure 4a source data
T2 construct: purchased Sino Biological 10327-HNAH
Excerpt: Matrix metalloproteinases (MMPs) are zinc-dependent endopeptidases capable of degrading and remodeling extracellular matrix components[46],[47]. They are attractive therapeutic targets as high expression levels were detected in various diseases, such as inflammatory diseases, and at different stages of cancers, including metastasis, invasion, and angiogenesis[47]–[53]. As shown in Supplementary Fig. 3c, we performed selections against the two gelatinases (human MMP-2 and human MMP-9) to identify binding fragments for later design and synthesis of small molecule inhibitors. After selection, the three sub-libraries were decoded, and the enrichment was calculated by dividing the post-selection fraction (count/total counts) by the pre-selection fraction (Fig. 4a and Supplementary Fig. 13).
4 µg of MMP-2/MMP-9 was dissolved in 100 µl of selection buffer containing 25 mM Tris-base, 10 mM CaCl2, 150 mM NaCl, 0.05% Tween 20, pH 7.5. 10 µl of 4-Aminophenylmercuric acetate (APMA) (100 mM) solution was added to the protein solution and incubated at 37 °C for 1 h. After activation, the solution was added on top of 40 µl pre-washed Ni-NTA resin and incubated for 30 min on a rotary shaker. The supernatant was discarded, and the resin was washed three times with the selection buffer.
For each independent selection, three sub-libraries were mixed in the selection buffer with a final concentration of 40 nM of each sub-library in 100 µl. The mixture was heat denatured at 90 °C for 1 min and slowly cooled down to allow the formation of the trio-pharmacophore library. The dynamic dual-pharmacophore DEL was provided by DyNAbind GmbH (Merck, DYNA001).
The assembled library was incubated with the protein-bound solid support for 2 h at RT on a rotary shaker. In parallel, selection on bare solid support served as the negative control to exclude promiscuous binders on the resin. After panning, the supernatant was discarded, and the resin was washed three times with 1 ml selection buffer. Finally, 100 µl of 50 mM Tris buffer, pH 7.4 was added to resuspend the resin and the resin was incubated at 95 °C for 5 min to denature the protein, release, and collect the bound library members.
The eluted library members were subjected to sample preparation for NGS. NGS preparation was achieved by two-step PCR. First, the individual selection was indexed using primers containing unique sequences corresponding to each selection. The amplified product was purified from 2% agarose gel. Second, the purified DNA from all selections were pooled in equal amount and subjected to the 2nd PCR step to attach sequences compatible with the NGS flow cell and the sequencing primers. NGS was performed by Novogene UK with Novaseq 6000. Raw data files (fastq files) obtained were decoded using a custom python script and excel. The sequence reads corresponding to each sample was retrieved by searching for the correct index unique to each selection. Then, the code region was extracted from each sequence and assigned to the corresponding identity. The count of each code in each selection sample was obtained by looping through the total reads and counting the occurrence of each code. The enrichment fold of each compound was calculated by first, dividing the count by the total count to get the abundance, second, the abundance after the selection was divided by the abundance of pre-selection to reflect the distribution change of the compound. Next, the enrichment fold was plotted against the count for each member of the library to give the scatter plots as in Fig. 4.

[3] = read-out: Mean (MMP-2, Supplementary fig 16)
[4] = read-out: Mean (MMP-2 dose-response, Supplementary fig 15)
[5] = read-out: Mean (dose-response, Supplementary fig 17)
[6] = read-out: Normalized activity (Mean)

T2 sequence (P14780 107-707 limits assumed): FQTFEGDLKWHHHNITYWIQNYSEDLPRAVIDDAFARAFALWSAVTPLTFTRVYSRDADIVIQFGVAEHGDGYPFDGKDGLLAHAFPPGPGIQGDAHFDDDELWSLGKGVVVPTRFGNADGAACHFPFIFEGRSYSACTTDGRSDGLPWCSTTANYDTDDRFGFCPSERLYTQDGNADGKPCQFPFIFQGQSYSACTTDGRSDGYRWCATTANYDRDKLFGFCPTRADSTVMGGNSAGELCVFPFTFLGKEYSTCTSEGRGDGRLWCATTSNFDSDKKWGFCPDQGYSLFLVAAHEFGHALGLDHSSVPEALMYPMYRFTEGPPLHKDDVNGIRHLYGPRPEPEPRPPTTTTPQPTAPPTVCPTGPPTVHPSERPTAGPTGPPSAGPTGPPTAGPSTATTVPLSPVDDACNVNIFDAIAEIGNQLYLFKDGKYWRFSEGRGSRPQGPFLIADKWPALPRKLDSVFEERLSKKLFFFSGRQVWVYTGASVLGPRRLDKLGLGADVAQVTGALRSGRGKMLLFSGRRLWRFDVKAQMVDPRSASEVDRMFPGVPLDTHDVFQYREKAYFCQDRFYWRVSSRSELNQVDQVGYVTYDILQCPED

O=C(O)c1cncc(O)c1 [Compound 828]
104%: remaining activity at 0.0156 µM [1, 3] | remaining activity at 0.0156 µM [1, 4] | remaining activity at 0.0156 µM [1, 5] | remaining activity at 0.0156098 µM [1, 6]
385 ± 67.3 µM: IC50 ([1]; mean ± SE, n.d: not detected, Fig. 5d unit inferred, µM, read-out: IC50)
32127: MMP9 SL-C Count ([2]; sequence count of sub-library SL-C member)
105%: remaining activity at 0.39 µM [1, 3] | remaining activity at 0.39 µM [1, 4] | remaining activity at 0.39 µM [1, 5] | remaining activity at 0.390244 µM [1, 6]
67.9%: remaining activity at 243.9 µM [1, 3] | remaining activity at 243.9 µM [1, 4] | remaining activity at 243.9 µM [1, 5] | remaining activity at 243.902 µM [1, 6]
94%: remaining activity at 0.08 µM [1, 3] | remaining activity at 0.08 µM [1, 4] | remaining activity at 0.08 µM [1, 5] | remaining activity at 0.0780488 µM [1, 6]
0%: remaining activity at 1219.51 µM [1, 3] | remaining activity at 1219.51 µM [1, 4] | remaining activity at 1219.51 µM [1, 5] | remaining activity at 1219.51 µM [1, 6]
10.2969: MMP9 SL-C Enrichment Fold ([2]; enrichment fold of sub-library SL-C member)
high µM range: inhibitory effect ([1]; in words)
107%: remaining activity at 1.95 µM [1, 3] | remaining activity at 1.95 µM [1, 4] | remaining activity at 1.95 µM [1, 5] | remaining activity at 1.95122 µM [1, 6]
83.6%: remaining activity at 48.78 µM [1, 3] | remaining activity at 48.78 µM [1, 4] | remaining activity at 48.78 µM [1, 5] | remaining activity at 48.7805 µM [1, 6]
90.1%: remaining activity at 9.76 µM [1, 3] | remaining activity at 9.76 µM [1, 4] | remaining activity at 9.76 µM [1, 5] | remaining activity at 9.7561 µM [1, 6]
